# Laboratory results: patent US11540515B2, “Use of dialkoxybenzenes for control of honey bee mite varroa destructor” (Simon Fraser University, priority 2018, dated 2023)
# Where a name gives a salt, the structure may show the parent alone.
# Key:
# [1] = tested on: Varroa mites; assay: Evaluation of acaricidal effect: emerging bees loaded with Varroa mites in glass petri dish, compound on Parafilm; type: in vivo, Varroa destructor; conditions: for mites falling off bees: up to end of experiment; for acaricidal effect: highest amount tested (30 μl), end of 24 h
# Description: The effect of the compounds was checked in free moving-mites freshly collected from the bottom board using fine paint brush. All collected Varroa were kept on emerging bees at room temperature until the experiment.
# Compounds (code-labeled, Table 1) were prepared in hexane:ethyl acetate (1:1) in 10 mM concentration according to instructions. Dilutions only of compound “A” was prepared. […] This setup enabled the testing of all the compounds and to save the mites.
# The assay was conducted in glass petri dish (90 mm diameter and 17 mm deep glass) containing moistened filter paper. Five emerging bees loaded with two Varroa mites were put into each plate. The bees were provided with candy (60% of pollen and 40% sugar). 10 μl or 30 μl volume of each compound or control mix was placed on Parafilm paper (5×5 cm) on the plates cover.
# [2] = tested on: Varroa mites; assay: Example 6 behavioral dose response bio-assays of Varroa mites; type: in vivo; conditions: for mite paralysis/mortality: 1 mg
# Excerpt: Foragers were collected at the entrance of one or more honey bee hives by aspiration into a jar, when bees were flying back to the colony.
# Initially, nurses were collected from an open brood frame of a honey bee hive. Bees apparently attending the brood were targeted for collection. As time passed and temperatures started to drop no open brood was observed, therefore subsequent collections targeted bees around sealed brood. At the end of the sampling period no sealed brood was present, so bees taken from the middle frame of a brood chamber were considered nurses.
# Both foragers and nurses were immediately transferred to individual plastic cages (118×98×81 mm: H×W×D), fed with syrup (2:1) and kept overnight in an incubator at 30° C. and 70% RH. Next day, cages were inspected for any dead bees to be removed before freeze killing the bees on dry ice.
# For Varroa mite collection, adult bees were taken from the brood chamber's central frames of a mite-infested hive using a glass jar. Bees were fed with syrup (2:1), and kept in an incubator at 30° C. and 70% RH until needed. First collections were made from frames with open and sealed brood, later only from sealed brood frames.
# Mite-infested bees in the glass jar were dusted with icy sugar and shaken over a large plastic weighing boat. Dislodged Varroa were immediately transferred with a fine paint brush to a wet filter paper in a plastic petri dish to avoid desiccation. Individual mites were placed then onto the middle of a glass petri dish bottom (10 cm diameter) with a fresh freeze-killed forager or nurse bee on opposite sides of the plate. Synthesized compounds were applied onto a 1 cm^2 Parafilm square attached to the center of the petri dish cover's inner face, Hexane was used as control.
# The bio-assays with a forager and a nurse bee, Varroa mite, and synthesized compounds were set in glass petri dishes placed into an incubator at 30° C. and 70% relative humidity. […] Mite paralysis and death were recorded after 3 h and 5 h.
# [3] = tested on: Varroa destructor mites; assay: Example 3 paralysis assays in petri dishes (dose response, screen, blends); type: in vivo
# Description: Paralysis assays. These assays were done in 10 cm glass Petri dishes. A 3×3 cm piece of Parafilm was stuck to the lid of the dish, in the middle. The Parafilm received […], either pure (controls) or with the compound (treatments). The bottom of the dish received one freshly thawed nurse and one freshly thawed forager, placed ˜3 cm from the center of the dish. One mite was placed between the nurse and the forager, the lid was closed and groups of dishes were placed in an incubator at 30° C. Humidity levels were kept at around 35-40%.
# Observation times were 3 h and 5 h. Mites were scored for whether the mite could move normally, was paralyzed (had difficulty moving) or dead (not moving).
# Each assay was done in 5 technical replicates, in two biological replicates. Thus, each biological replicate was scored out of 5.
# (§1) Experiments were performed in the dishes: i) dose response assays with a single compound at different doses of compound on the Parafilm (1 ng, 10 ng, 100 ng, 1 μg, 10 μg, 100 μg, 1 mg and 10 mg), ii) a screen with six compounds, all at a 1 mg dose, iii) an assay with blends of compounds 3c{3,6} and 3c{6,6}, and iv) one assay without bees (only to check for mite paralysis and death), with compounds 3c{3,6} and 3c{6,6}(pure or 1:1 blend), at 0.5 and 1 mg doses.
# [4] = tested on: Varroa; assay: Example 5 Varroa death and paralysis assay, single compounds and blend; parameters: species or system Varroa destructor; conditions: in vivo
# Description: Assays were done in 9 cm glass Petri dishes. A 2.5×2.5 cm piece of Parafilm was stuck to the lid of the dish, in the middle. 120 μL water were put on filter paper in the middle of the plate. The Parafilm received 10 μL of hexane, either pure (controls) or with the compound (treatments). The bottom of the dish received one freshly thawed nurse and one freshly thawed forager, placed at opposite sides. One mite was placed between the nurse and the forager, the lid was closed and groups of dishes were placed in an incubator at 30° C. Observation times were at 3 h, 5 h and 20 h. Mites were scored for whether the mite could move normally, was paralyzed (had difficulty moving) or dead (not moving). Four types of experiment were performed in the dishes: i) dose response assays with a single compound at different doses of compound on the Parafilm (1 ng, 10 ng, 100 ng, 1 μg, 10 μg, 100 μg, 1 mg) an assay with blends of compounds 3c{3,6} and 3c{6,6} (pure or 1:1 blend) at 0.5 mg and […].
# [5] = tested on: Varroa destructor mites; assay: Example 3 mite paralysis/death in the absence of bees; type: in vivo; conditions: no bees, 4.5 h
# Description: as §1
# Compounds 3c{3,6}, 3c{6,6} were tested on mites in the absence of bees, alone and as a 1:1 blend. Mite paralysis and death were checked every 30 min, up to 4.5 h after initial exposure. Four doses were tested: 0.2, 0.5, 1 and 10 mg.
# [6] = tested on: Varroa; conditions: earlier evaluation; cited from earlier work
# [7] = tested on: honey bee antennae; conditions: earlier evaluation; cited from earlier work
smiles,measurement,setting,value
"C=CCOc1ccccc1OCCC [3a{3,6}, 1-allyloxy-2-propoxybenzene]",mites falling off bees,[1],occasionally fell off bees but reattached quickly
"CCOc1cccc(OCC)c1 [3b{2,2}, 1,3-diethoxybenzene]",mite paralysis/mortality,[2],50%
"C=CCOc1ccc(OCC)cc1 [3c{2,6}, 1-(allyloxy)-4-ethoxybenzene]",paralysis and mite death in screen,"[3]; 1 mg dose, 3 h",little paralysis
"CCCOc1ccc(OCCC)cc1 [3c{3,3}, 1,4-dipropoxybenzene]",paralysis and mite death in screen,"[3]; 1 mg dose, 3 h",most reliable mite paralysis
same,acaricidal effect,[1],clear acaricidal effect
"CCCCOc1ccc(OCCC)cc1 [3c{4,3}, 1-butoxy-4-propoxybenzene]",paralysis and mite death in screen,"[3]; 1 mg dose, 3 h",most death
same,acaricidal effect,[1],somewhat effective
"C=CCOc1ccc(OCCCC)cc1 [3c{4,6}, 1-(allyloxy)-4-butoxybenzene]","activity relative to compound 3c{3,6} in screen",[3]; 1 mg dose,slightly less active
same,acaricidal effect,[1],clear acaricidal effect
"C=CCOc1ccc(OCC=C)cc1 [3c{6,6}, 1,4-bis(allyloxy)benzene]","fold less active than 3c{3,6} with regard to paralysis and death of mites",[3]; from EC50,ca. 4 ×
same,EC50 for paralysis and eventual death of mites,"[3]; neat compound on the source, vapors only, 3 h",182 µg
same,mite paralysis/mortality,[2],50%
same,doses at which mites were paralyzed or killed,[2]; FIG. 9 / FIG. 10,≥ 10 µg
same,acaricidal activity alone,[4],acaricidal
same,mite paralysis+death,[5]; 0.2 mg,no activity
same,mite paralysis+death,[5]; 0.5 mg,no activity
same,mite paralysis or death,[5]; 10 mg,100%
same,acaricidal effect,[1],clear acaricidal effect
same,mites falling off bees,[1],occasionally fell off bees but reattached quickly
"C=CCOc1ccc(OCCCCC)cc1 [3c{n5,6}, 1-(allyloxy)-4-(pentyloxy)benzene]",mites falling off bees,[1],occasionally fell off bees but reattached quickly
"CCN(CC)C(=O)c1cccc(C)c1 [DEET, N,N-diethyl-meta-toluamide]",ability of mites to reach a bee,[6],reduced
same,host preference of Varroa,[6],without affecting
same,chemosensing and behavior of honey bees,[7],not found to affect
Cc1ccc(C(C)C)c(OC=O)c1 [thymyl formate],acaricidal effect,[1],somewhat effective
